Values after ≈ are worked out from the molar mass of the structure shown. “Also recorded” adds a separate entry of the source. Where two headings read alike, the source gives them in different places.
How the values were obtained:
C. albicans 13/15 = experiment: Microdilution assay, MIC and MFC; assay type: cell-based; details: Candida albicans, C. albicans 13/15, mean ± SD of three replicates
Description: (§1) C. albicans was isolated from oral cavities of patients at ENT Clinic, Clinical Hospital Centre Zvezdara, Belgrade, Serbia after obtaining informed written consent and identified by using CHROMagar plates (Biomerieux, Craponne, France). Strains were maintained on Sabouraud Dextrose Agar (Merck, Darmstadt, Germany) and are deposited at the Mycological Laboratory, Department of Plant Physiology, Institute for Biological Research “Siniša Stanković”, National Institute of Republic of Serbia, University of Belgrade. The collection of samples was approved by the Ethical Committee (Office for Human Research Protection, Zvezdara University Medical Center, Belgrade, Serbia, document issued 26 October 2016).
(§2) Microdilution assay with some modification was used for determination of minimum inhibitory (MIC) and minimum fungicidal concentrations (MFC). Yeast cultures were adjusted to 1.0 × 10^5 CFU/per well with sterile PBS (Phosphate buffered saline, pH 7.4). The 96-well microtiter plates with serially diluted flavonoids (concentration range 0.3–75 µg/mL) in liquid broth were incubated at 37 °C for 24 h. After incubation, MIC and MFC were determined. The lowest concentrations that were not inducing microscopically observed growth were considered as MIC. For microscopic determination of growth, we used inverted microscope Nikon Eclipse TS2 (Amsterdam, Netherland) and examined the fungal growth in the wells of 96-well microtiter plates compared to the control (untreated yeast cells). MFC values were determined as concentrations without visible growth after serial sub-cultivation of 10 µL of samples at 37 °C for 24 h. Ketoconazole and amphotericin B (SigmaAldrich, Darmstadt, Germany) were used as an antifungal control. The tested flavonoids were obtained from Extrasynthese, Rhone, France.

C. albicans 527/14 = experiment: Microdilution assay, MIC and MFC; assay type: cell-based; details: Candida albicans, C. albicans 527/14, mean ± SD of three replicates
Description: as §1, §2

C. albicans 475/15 [1] = experiment: Microdilution assay, MIC and MFC; assay type: cell-based; details: Candida albicans, C. albicans 475/15, mean ± SD of three replicates
Description: as §1, §2

C. albicans 10/15 = experiment: Microdilution assay, MIC and MFC; assay type: cell-based; details: Candida albicans, C. albicans 10/15, mean ± SD of three replicates
Description: as §1, §2

CDR1 = experiment: Expression of CDR1 (qPCR); assay type: cell-based, Candida albicans; details: treatment with MIC
Description: (§3) Total RNA was isolated as described by Sanglard et al. with some modifications. C. albicans 475/15 was grown with agitation at 30 °C in YEPD until OD540 = 0.4. C. albicans cells were incubated with MIC of compounds in YEPD at 30 °C with agitation for 30 min. Cells were centrifuged (4600 rpm, 4 °C for 5 min (Rotanata 460 R, Hettich, Tuttlingen, Germany)) and the pellet was resuspended in 300 µL of RNA buffer (0.1 M Tris-HCl pH 7.5, 0.1M LiCl, 10mM EDTA, 0.5% SDS). The pellet was homogenized with 200 µL of DEPC treated glass beads and 300 µL of Phenol:Chloroform:Isoamyl Alcohol (Sigma-Aldrich, Darmstadt, Germany) in Precellys Evolution tissue homogenizer (Bertion instruments, Montigny-le-Bretonneux, France) at 4500 rpm for 5 s. After centrifugation (14,000 rpm, 4 °C, 1 min (Universal 32 R, Hettich, Tuttlingen, Germany)) 200 µL of supernatant was vortexed with 250 µL of Phenol:Chloroform:Isoamyl Alcohol for 10 s. Samples were centrifuged (14,000 rpm, 4 °C, 1 min) and 200 µL of supernatant was transferred to new tubes, 400 µL of ice-cold 99% ethanol was added to each tube, and they were kept on dry ice for 10 min. Samples were centrifuged (14,000 rpm, 4 °C, 2 min), pellet was washed with ethanol (70%), left to dry at room temperature, after which it was dissolved in 50 µL of DEPC treated water. Nanodrop (ND-1000, Witec AG, Sursee, Switzerland) was used for determination of concentration and purity of samples. RNA was stored at −80°C.
(§4) Amount of 10 µg RNA was incubated with 5 µL of DNAse buffer and 1 µL of DNAse at 37 °C for 30 min (DNA-free™ DNA Removal Kit, Ambion, Bleiswijk, Netherlands). After addition of DNAse inactivation reagent tubes were kept at room temperature with occasional vortexing for 5 min. Samples were centrifuged (14,000 rpm, 4°C, 2 min) and the concentration and quality of supernatant were analyzed on Nanodrop (ND-1000, Witec AG, Sursee, Switzerland).
(§5) Synthesis of cDNA was done with a Transcriptor High Fidelity cDNA synthesis kit (Roche). RNA (1 µg) was incubated with 60 µM random hexamer primers, in 11.4 µL of total sample volume, at 65 °C for 10 min. The mixture of Transcriptase reaction buffer 5×, Deoxynucleotide mix, DTT, Protector RNAse inhibitor, and Transcriptor High Fidelity Reverse Transcriptase was added to each tube according to manufacturer instructions. Synthesis of cDNA was completed by incubating the mixture at 50 °C for 30 min and 85 °C for 5 min (Peqstar thermocycler, Peqlab, Erlangen, Germany).
(§6) Wells of MicroAmp Fast 96-Well Reaction plate ((0.1 mL), Applied biosystems, Waltham, MA, USA) were incubated with 10 µL of mixture (cDNA, 2× MasterMix, primers, probe (Table 3), and water). Analysis was performed in StepOnePlus Real Time PCR system with relative standard curve method. Expression levels of CDR1 and ERG11 were normalized to expression of ACT1.

[2] = test system: HUVE (human umbilical vein endothelial) cells; details: read-out: LC50; cited from earlier work
C. albicans biofilm = details: cited from earlier work
S. aureus efflux = test system: S. aureus efflux; parameters: method as in PMID 25961825; details: bacterial efflux pumps; cited from earlier work
ERG11 = experiment: Expression of ERG11 (qPCR); assay type: cell-based, Candida albicans; details: treatment with MIC
Description: as §3, §4, §5, §6

in vitro = details: pig
Description: Preparation of PLP2 cell line was performed with freshly harvested porcine liver supplied from a local slaughter house. Tissues from the liver were washed in Hank’s balanced salt solution comprising 100 U/mL penicillin and 100 μg/mL streptomycin and split into 1 × 1 mm^3 explants. Some of the prepared explants were set in 25 cm^2 tissue flasks in Dulbecco’s modified Eagle’s medium (DMEM) with 10% fetal bovine serum (FBS), 2 mM nonessential amino acids, 100 U/mL penicillin, and […] streptomycin, and incubation was conducted at 37 °C with 5% CO2 in a humidified atmosphere. The fresh medium was added every 2 days. Cultivation of the cells was further conducted with direct observation by the phase contrast microscope every 2–3 days. Before confluence was achieved, cells were subcultured and seeded in 96-well plates at a density of 1.0 × 10^4 cells per well and cultivated in DMEM supplemented with 10% FBS, 100 U/mL penicillin, and 100 μg/mL streptomycin. Previously described Sulforhodamine B assay was used for the determination of cytotoxicity. The obtained results were defined as GI50 values corresponding to the compound concentration that inhibits 50% of the net cell growth. Ellipticine was used as a positive control.

[3] = test system: C. albicans 475/15 hyphal growth; experiment: Anti-hyphal forming activity; assay type: cell-based, Candida albicans; details: MIC, 4 h, YPD + 10% FBS
Description: C. albicans 475/15 cells were incubated with MIC of tested compounds in YPD + 10% FBS, at 37 °C, for 4 h. Cells were examined under microscope (Nikon Eclipse TS2, Amsterdam, Netherland) and number of cells, growing in the yeast or hyphal and germ tube formations, was determined. Assay was performed in triplicate and percentage of hyphae was determined.

[4] = test system: C. albicans 475/15 biofilm formation; experiment: Inhibition of biofilm formation (crystal violet); assay type: cell-based, Candida albicans; details: concentration not given
Description: Potential of selected compounds to interfere with C. albicans 475/15 biofilm formation was investigated as previously described. Briefly, C. albicans 475/15 was incubated with serial dilution of the compounds (MIC and subMICs) in YPD medium, in 96-well microtiter plates with adhesive bottom (Sarstedt, Nümbrecht, Germany), at 37 °C for 24 h. After incubation, wells were washed twice with sterile PBS and methanol was added into each well. After fixation, methanol was discarded, and the plate was air dried. Formed biofilms were stained with 0.1% crystal violet (Bio-Merieux, Craponne, France) for 30 min. The plate was gently washed under the tap of water and air dried. The stain bound to the remaining biofilms was dissolved with ethanol (96%, Zorka, Šabac, Serbia). Absorbance was read on a Multiskan™ FC Microplate Photometer, Thermo Scientific™. The percentage of inhibition of biofilm formation was calculated by the formula:[(A620control − A620sample)/A620control] × 100

C. albicans 475/15 [5] = test system: C. albicans 475/15; parameters: method as in PMID 28827996; details: previously published; cited from earlier work

| MIC (C. albicans 13/15; read-out: MIC) [µg/mL] | MIC (C. albicans 527/14; read-out: MIC) [µg/mL] | MIC (C. albicans 475/15 [1]; read-out: MIC) [µg/mL] | MIC (C. albicans 10/15; read-out: MIC) [µg/mL] | Compound | MFC (C. albicans 13/15; read-out: MFC) [µg/mL] | MFC (C. albicans 527/14; read-out: MFC) [µg/mL] | MFC (C. albicans 475/15 [1]; read-out: MFC) [µg/mL] | MFC (C. albicans 10/15; read-out: MFC) [µg/mL] | CDR1 expression level, log2FC (CDR1; 30 min, normalized to ACT1) [log2FC] | impact on CDR1 expression (CDR1; listed as apigenin) | CC50 [2] [µM] | antibiofilm effect (C. albicans biofilm; 125 µg/mL, oral and reference isolates SC5314 and 3153A) | concentration necessary for biofilm reduction (C. albicans biofilm; C. albicans ATCC 90028) [µg/mL] | concentration that inhibited bacterial efflux pumps (S. aureus efflux) [µg/mL] | impact on ERG11 expression (words) (ERG11) | impact on ERG11 expression (words) (ERG11; listed as apigenin) | GI50 (in vitro) [µg/mL] | reduction of hyphal growth (words) [3] | reduction of biofilm formation [4] | MIC (C. albicans 475/15 [5]) [µg/mL] |
| --- | --- | --- | --- | --- | --- | --- | --- | --- | --- | --- | --- | --- | --- | --- | --- | --- | --- | --- | --- | --- |
| 0.63 ± 0.001 (≈ 0.682 µM) | 0.63 ± 0.001 (≈ 0.682 µM) | 0.63 ± 0.001 (≈ 0.682 µM) | 0.63 ± 0.001 (≈ 0.682 µM) | C[C@@H]1[C@H](O)[C@@H](C)/C=C/C=C/C=C/C=C/C=C/C=C/C=C/[C@H](O[C@@H]2O[C@H](C)[C@@H](O)[C@H](N)[C@@H]2O)C[C@@H]2O[C@](O)(C[C@@H](O)C[C@@H](O)[C@H](O)CC[C@@H](O)C[C@@H](O)CC(=O)O[C@H]1C)C[C@H](O)[C@H]2C(=O)O [Amphotericin B, amphotericin B, reference compound] | 1.25 ± 0.002 (≈ 1.35 µM) | 1.25 ± 0.002 (≈ 1.35 µM) | 1.25 ± 0.002 (≈ 1.35 µM) | 1.25 ± 0.002 (≈ 1.35 µM) |  |  |  |  |  |  |  |  |  |  |  |  |
|  |  |  |  | O=c1cc(-c2ccc(O)cc2)oc2cc(O)cc(O)c12 [Apigenin, apigenin] |  |  |  |  | < −1 | downregulated; also recorded: inhibitory impact; also recorded: lowering CDR1 expression | 110 | did not show any antibiofilm effect | 5 | 38 | negative impact | lower expression levels; also recorded: lowering ERG11 expression | > 400 | lowest number of cells growing in the hyphal form | more than 50% | 100 (≈ 370 µM) |
|  |  |  |  | Cc1c2ccncc2c(C)c2c1[nH]c1ccccc12 [Ellipticin, Ellipticine, reference compound] |  |  |  |  |  |  |  |  |  |  |  |  | 3.22 ± 0.2 (≈ 13.1 µM) |  |  |  |

— paper PMC7824033, “Flavones, Flavonols, and Glycosylated Derivatives—Impact on Candida albicans Growth and Virulence, Expression of CDR1 and ERG11, Cytotoxicity” (Pharmaceuticals, 2020)
